The values that follow are results of earlier work, collected in US20100286187A1, “METHOD OF PREDICTING SURVIVAL OF A NON-SMALL-CELL LUNG CANCER PATIENT TO A CHEMOTHERAPEUTIC TREATMENT” (PANGAEA BIOTECH S.A., priority 2006, published 2010).

Data set [1] has as its system non-small cell lung cancer (NSCLC) patients. Conditions: single agent, previously untreated NSCLC patients.
In data set [2] the test system is non-small cell lung cancer (NSCLC). Conditions: randomized study, per arm.

For `CC(=O)O[C@@]12CO[C@@H]1C[C@H](O)[C@@]1(C)C(=O)[C@H](O)C3=C(C)[C@@H](OC(=O)[C@H](O)[C@@H](NC(=O)OC(C)(C)C)c4ccccc4)C[C@@](O)([C@@H](OC(=O)c4ccccc4)[C@H]21)C3(C)C` [Docetaxel], in data set [1], the Response rates is recorded as 21-38%. Take paclitaxel/carboplatin: in data set [2], the Median survival is reported as 8.2 months.
